In patent US8507692B2, “Ester compound and use thereof” (Sumitomo Chemical Company, Limited, priority 2010, dated 2013):

How the values were obtained:
Assay type in all cases: in vivo
[1] = tested on: German cockroaches (Blattella germanica); assay: Test Example 2: oil solution spray knock-down test on German cockroaches; conditions: 0.00625% (w/v) oil solution, 1.5 ml sprayed, adult German cockroaches
Procedure: Zero point zero six two five (0.00625) part of the compound of the present inventions (1) to (6) and (9) to (12) was dissolved in 10 parts of isopropyl alcohol and the solution was mixed with 89.99375 parts of deodorized kerosene to prepare a 0.00625% (w/v) oil solution.
Ten adult German cockroaches (Blattella germanica, 5 males and 5 females) were released in a test container (diameter 8.75 cm, 7.5 cm high, the bottom face is made of 16 mesh metallic wire), the inner face on which butter was applied, and the container was set at the bottom of a test chamber (bottom face: 46 cm×46 cm, height: 70 cm).
Each 1.5 ml of the oil solution of the compound of the present invention (1) to (6) and (9) to (12) was sprayed using a spray gun at a pressure of 0.4 kg/cm^2 from 60 cm higher than the upper face of the container. Thirty seconds after the spraying, the container was pulled out from the chamber. After a prescribed time, the number of knocked-down cockroaches was counted and a knock-down ratio was determined (repeated once). A knocked-down ratio was calculated by the following equation. Knocked-down ratio(%)=(Number of knocked-down cockroaches/Number of test cockroaches)×100 The results (2 minutes after spraying) are shown in Table 2.

[2] = tested on: American cockroaches (Periplaneta fuliginosa); assay: Test Example 7: oil solution spray knock-down test on cockroaches (Periplaneta fuliginosa); conditions: 0.1% (w/v) oil solution, 1.5 ml sprayed; adult cockroaches (Periplaneta fuliginosa); one minute after spraying
Procedure: Zero point one (0.1) part of the compound of the present invention (4) was dissolved in 10 parts of isopropyl alcohol and the solution was mixed with 89.9 parts of deodorized kerosene to prepare a 0.1% (w/v) oil solution.
(§1) Six adult American cockroaches (Periplaneta fuliginosa, 3 males and 3 females) were released in a test container (diameter 12.5 cm, 10 cm high, the bottom face is made of 16 mesh metallic wire), the inner face on which butter was applied, and the container was set at the bottom of a test chamber (bottom face: 46 cm×46 cm, height: 70 cm). One point five (1.5) ml of the oil solution of the compound of the present invention (4) was sprayed using a spray gun at a pressure of 0.4 kg/cm^2 from 60 cm higher than the upper face of the container. Thirty seconds after the spraying, the container was pulled out from the chamber. One minutes after spraying, the number of knocked-down cockroaches was counted and a knock-down ratio was determined (repeated twice). The knocked-down ratio was calculated by the following equation. Knocked-down ratio(%)=(Number of knocked-down cockroaches/Number of test cockroaches)×100 The knocked-down ratio of the compound of the present invention (4) was 100%.

[3] = tested on: American cockroaches (Periplaneta Americana); assay: Test Example 8: oil solution spray knock-down test on American cockroaches, 3 minutes; conditions: 0.1% (w/v) oil solution, 1.5 ml sprayed, adult American cockroaches
Procedure: Zero point one (0.1) part of the compound of the present inventions (1) to (6) and (9) to (12) was dissolved in 10 parts of isopropyl alcohol and the solution was mixed with 89.9 parts of deodorized kerosene to prepare a 0.1% (w/v) oil solution.
as §1, with “Americana,” for “fuliginosa,”, “Each 1.5” for “One point five (1.5)”, “(1) to (6) and (9) to (12)” for “(4)”, “Three” for “One”, “cockroaches)×100” for “cockroaches)×100 The knocked-down ratio of the compound of the present invention (4) was 100%.”

[4] = tested on: American cockroaches (Periplaneta Americana); assay: Test Example 1: oil solution spray knock-down test on American cockroaches; conditions: 0.1% (w/v) oil solution, 1.5 ml sprayed, adult American cockroaches
Procedure: Zero point one (0.1) part of the compound of the present inventions (1) to (6) was dissolved in 10 parts of isopropyl alcohol and the solution was mixed with 89.9 parts of deodorized kerosene to prepare a 0.1% (w/v) oil solution.
as §1, with “Americana,” for “fuliginosa,”, “Each 1.5” for “One point five (1.5)”, “(1) to (6)” for “(4)”, “After a prescribed time,” for “One minutes after spraying,”, “cockroaches)×100” for “cockroaches)×100 The knocked-down ratio of the compound of the present invention (4) was 100%.”
For comparison, the test was conducted in the same manner as the above, except for using 2,5-dioxo-3-(2-propynyl)imidazolidinylmethyl=(1R)-trans-3-(2-methyl-1-propenyl)-2,2-dimethylcyclopropane carboxylate (compound described in Pesticide Science, 10, p. 291 (1979), hereinafter referred to as the comparative compound (1)) represented by the following formula:
[drawing 41] and 2,5-dioxo-3-(2-propynyl)imidazolidinylmethyl=(1R)-cis-3-((Z)-2-cyano-2-methoxyethenyl)-2,2-dimethylcyclopropane carboxylate (compound described in JP-A-60-16962, hereinafter referred to as the comparative compound (2)) represented by the following formula: […]

C#CCN1CC(=O)N(COC(=O)[C@@H]2[C@@H](/C=C(\C#N)SC)C2(C)C)C1=O [compound of the present invention (4), 2,5-dioxo-3-(2-propynyl)imidazolidinylmethyl=(1R)-trans-3-[(1E)-2-cyano-2-(methylthio)ethenyl]-2,2-dimethylcyclopropane carboxylate]
100%: Knock-down ratio (%) 2 minutes after spraying [1] | Knocked-down ratio [2] | Knock-down ratio (%) 3 minutes after spraying [3] | Knock-down ratio (%) 2 minutes after spraying [4]
